# Assay results from publication PMC10974290, “Biocatalytic Synthesis of Coumarin S-Glycosides: Towards Non-Cytotoxic Probes for Biomedical Imaging and Sensing” (Molecules, 2024).
# Marks after values point to notes of the source that are not given here.
# Key:
# [1] = Fluorescence excitation/emission spectroscopy and relative quantum yield; format: physicochemical; conditions: 7-MC in presence of 10 mM DTT; for Fluorescence λmax ex: emission at 420 nm; for Fluorescence λmax em: excitation at 280 nm
# Protocol: The values determined were close to those observed for the 4-MUB fluorophore.
# Both absorbance and fluorescence spectra were measured on a Tecan […] M PLEX 200 Pro plate reader equipped with monochromator allowing a scan from 230 to 1000 nm. […] The solutions were then transferred to a Corning (Corning, NY, USA) UV-transparent 96-well plate. Absorbance spectra were recorded from 230 to 800 nm. Emission fluorescence spectra were recorded from 320 to 800 nm, under excitation at 280 nm. Excitation fluorescence spectra were recorded from 230 to 380 nm for an emission at 420 nm. All spectra were recorded with a wavelength step size of 2 nm. Data processing was performed with Excel software 2016. Fluorescence spectra are presented as normalized spectra ranging from 0 to 1. The relative quantum yields were calculated according to Equation (1):(1) ΦT=(AR/AT)×(FT/FR)×(nT/nR)×ΦR where Φ is the fluorescence quantum yield, A is the absorbance at the excitation wavelength, F is the area under the corrected emission curve, and n is the refractive index of the solvent for the test compound (T) and the reference (R). The 4-MUB value in DMF was used as the reference. The LOD (resp. LOQ) values were determined as the minimal concentration of product S-3 required to yield a fluorescence that was twice greater than (respectively, 5-times that of) the fluorescence noise on a sample containing PBS, using an excitation wavelength of 280 nm and an emission wavelength of 386 nm (Figure S44).
# [2] = UV-visible absorbance spectroscopy; format: physicochemical; conditions: 0.1 mM
# Protocol: Subsequently, the analysis was carried out under two distinct conditions: firstly, in DMF, at a final concentration of 0.1 mM; and secondly, in a mixture PBS:DMF (99:1%), at the same final concentration of 0.1 mM. These two experimental setups provided valuable insights into the spectral characteristics of the compounds in both a pure organic solvent and a solvent system closely resembling physiological conditions. The maxima absorption wavelengths are compiled in Table 3. These bands were attributed to transitions within the benzene and pyrone moieties, considered together as a single chromophore. […] Similarly, 7-MC and S-1 to S-6 compounds also absorb in this UV range (λmax = 328–330 nm). […] In the organic solvent, these values are found to be higher compared to those calculated for 4-MUB and 7-MC. Conversely, in PBS, the extinction coefficients for S-glycosides are lower compared to the parent thiol 7-MC. This highlights the profound impact of glycosylation on absorption properties, as well as the importance of solvent choice.
# Both absorbance and fluorescence spectra were measured on a Tecan […] M PLEX 200 Pro plate reader equipped with monochromator allowing a scan from 230 to 1000 nm. All synthesized molecules were initially dissolved in 10 mM DMF and subsequently diluted in freshly prepared PBS (pH = 7.4) to achieve a final concentration of 0.1 mM. The solutions were then transferred to a Corning (Corning, NY, USA) UV-transparent 96-well plate. Absorbance spectra were recorded from 230 to 800 nm. Emission fluorescence spectra were recorded from 320 to 800 nm, under excitation at 280 nm. Excitation fluorescence spectra were recorded from 230 to 380 nm for an emission at 420 nm. All spectra were recorded with a wavelength step size of 2 nm. Data processing was performed with Excel software 2016. Fluorescence spectra are presented as normalized spectra ranging from 0 to 1. The relative quantum yields were calculated according to Equation (1):(1) ΦT=(AR/AT)×(FT/FR)×[…]×ΦR where Φ is the fluorescence quantum yield, A is the absorbance at the excitation wavelength, F is the area under the corrected emission curve, and n is the refractive index of the solvent for the test compound (T) and the reference (R). The 4-MUB value in DMF was used as the reference. The LOD (resp. LOQ) values were determined as the minimal concentration of product S-3 required to yield a fluorescence that was twice greater than (respectively, 5-times that of) the fluorescence noise on a sample containing PBS, using an excitation wavelength of 280 nm and an emission wavelength of 386 nm (Figure S44).
# [3] = design: method as in doi:10.1016/1010-6030(89)87054-6; conditions: DMF; ref [50]; cited from earlier work
# [4] = test system: HaCaT (keratinocyte normal skin); experiment: MTT cell proliferation assay, HaCaT; format: cell-based; conditions: Homo sapiens, 72 h incubation, 95% confidence interval in parentheses
# Protocol: (§1) To use these S-glycosidic compounds in cellulo, the potential impact of the glycosidic linkage nature on the anticancer activity was assessed. The S-glycoside derivatives and the 7-MC were tested against four human cancer cell lines and a healthy one, namely A549 (lung carcinoma), HS-683 (glioma cancer), MCF-7 (breast adenocarcinoma), SK-MEL-28 (melanoma skin cancer), and HaCaT (keratinocyte normal skin), using MTT (thiazolyl blue tetrazolium bromide, Sigma-Aldrich, St. Louis, MO, USA) assay, as previously described in the literature. The selected reference drugs were 5-fluorouracil (5-FU) and etoposide.
# (§2) Cell proliferation of five distinct cell lines was evaluated using the colorimetric MTT (thiazolyl blue tetrazolium bromide, Sigma) assay. Human keratinocyte normal skin HaCaT was cultivated in DMEM supplemented with 4.5 g/L glucose, 2 mM L-glutamine, and 10% FBS. Cancer cell lines and their respective growth media were obtained from CLS Cell Line Service GmbH (Eppelheim, Germany). Specifically, human skin melanoma SK-MEL-28 and human brain glioma HS683 were cultivated in DMEM with identical supplements as HaCaT cells. The human lung carcinoma cell line A-549 was grown in DMEM/Ham’s F12 (1:1) medium supplemented with 2 mM L-glutamine and 5% FBS. Additionally, human breast adenoma carcinoma MCF-7 cells were sustained in EMEM supplemented with 2 mM L-glutamine, sodium pyruvate, non-essential amino acids (NEAAs), 10 µg/mL insulin human, and 10% FBS. The MTT assay relies on the reduction of the yellow product thiazolyl blue tetrazolium bromide (MTT) to formazan, a purple-blue product, by mitochondrial dehydrogenases in metabolically active cells. The number of living cells after incubation in the presence (or absence, control) of the tested molecules is directly proportional to the blue color, which was measured by spectrophotometry. To perform the assay, cells were initially seeded at a density of 2500 cells/mL in 96-well culture plates (Nunc™ Edge 2.0, Fisher) and allowed to adhere and proliferate over a 24-hour incubation period. Following this, the cells were treated with various concentrations of the tested compounds, which were previously prepared as serial dilutions and dissolved in 0.1% DMSO. These stable solutions guarantee the consistency of experimental conditions over extended periods. Each concentration of the tested compounds underwent triplicate testing (n = 3), and cells were subsequently incubated for 72 h to allow for thorough evaluation. Following this incubation period, MTT reagent (5 mg/mL solution in PBS) was introduced to each well (10% v/v), and cells were further incubated for 4 h. Then, the culture medium was carefully removed, and the resulting blue formazan crystals were dissolved in 100 µL of 100% DMSO. Absorbance readings were taken at 540 nm, referencing a wavelength of 620 nm, using a spectrophotometer. In determining the IC50, the absorbance of serial dilutions of each cell line, treated under identical conditions but without the presence of the tested compounds, was measured.
# [5] = test system: SK-MEL-28 (melanoma skin cancer); experiment: MTT cell proliferation assay, SK-MEL-28; format: cell-based; conditions: Homo sapiens, 72 h incubation, 95% confidence interval in parentheses
# Protocol: as §1, §2
# [6] = test system: HS683 (brain glioma); experiment: MTT cell proliferation assay, HS683; format: cell-based; conditions: Homo sapiens, Hs 683, 72 h incubation, 95% confidence interval in parentheses
# Protocol: as §1, §2
# [7] = test system: MCF-7 (breast adenocarcinoma); experiment: MTT cell proliferation assay, MCF-7; format: cell-based; conditions: Homo sapiens, MCF7, 72 h incubation, 95% confidence interval in parentheses
# Protocol: as §1, §2
# [8] = test system: A-549 (lung carcinoma); experiment: MTT cell proliferation assay, A-549; format: cell-based, human; conditions: Homo sapiens, A549, 72 h, 72 h incubation, 95% confidence interval in parentheses
# Protocol: To use these S-glycosidic compounds in cellulo, the potential impact of the glycosidic linkage nature on the anticancer activity was assessed. The S-glycoside derivatives and the 7-MC were tested against four human cancer cell lines and a healthy one, namely A549 (lung carcinoma), HS-683 (glioma cancer), MCF-7 (breast adenocarcinoma), SK-MEL-28 (melanoma skin cancer), and HaCaT (keratinocyte normal skin), using MTT (thiazolyl blue tetrazolium bromide, Sigma-Aldrich, St. Louis, MO, USA) assay, as previously described in the literature.
# as §2, with “These stable solutions guarantee the consistency of experimental conditions over extended periods.” left out
# [9] = DMF, 7-MC in presence of 10 mM DTT
structure (smiles),measurement,setting,value
"Cc1cc(=O)oc2cc(O)ccc12 [Compound 4-MUB, 4-methylumbelliferone, reference compound]",Fluorescence λmax ex,"[1]; DMF, 0.1 mM",320 nm
same,Fluorescence λmax em,"[1]; DMF, 0.1 mM",380 nm
same,Fluorescence λmax ex,"[1]; PBS pH 7.4, 0.1 mM",333 nm
same,Fluorescence λmax em,"[1]; PBS pH 7.4, 0.1 mM",448 nm
same,Relative quantum yield Φ,"[1]; PBS, relative to 4-MUB in DMF",0.293
same,Absorbance ε (molar absorption coefficient),[2]; [9],17.0 10^3 M^−1 cm^−1
same,Absorbance λmax abs,[2]; [9],322 nm
same,emax (molar absorption coefficient),"[2]; PBS 1x (pH = 7.4), 7-MC + DTT 10 mM","20129,15057 cm-1 M-1"
same,Absorbance λmax abs,"[2]; PBS (PBS:DMF 99:1, pH 7.4), 7-MC in presence of 10 mM DTT",324 nm
same,Quantum yield Φ (reference value),[3],0.081 ^a
"O=c1[nH]cc(F)c(=O)[nH]1 [Compound 5-FU, 5-fluorouracil, reference compound]",IC50,[4],0.4 µM
same,IC50,[5],6.6 µM
same,IC50,[6],37 µM
same,IC50,[7],4.8 µM
"COc1cc([C@@H]2c3cc4c(cc3[C@@H](O[C@@H]3O[C@@H]5CO[C@@H](C)O[C@H]5[C@H](O)[C@H]3O)[C@H]3COC(=O)[C@H]23)OCO4)cc(OC)c1O [Etoposide, etoposide, reference compound]",IC50,[4],0.5 µM
same,IC50,[5],3.2 µM
same,IC50,[6],1.6 µM
same,IC50,[8],1.6 µM
same,IC50,[7],3.9 µM
